Key:
H9 [1] = test: Cytotoxicity against H9 lymphocytic cells.; type: functional, cell-based; conditions: Homo sapiens
[2] = Therapeutic index expressed as the ratio of IC50 to EC50; No effect
H9 [3] = test: Compound was tested for inhibitory activity against HIV replication in H9 lymphocytic cells; No effect; type: functional, cell-based, Homo sapiens
[4] = system: Human immunodeficiency virus 1; test: Inhibition of HIV-1 replication in H9 lymphocytic cells.; type: functional, organism-based; conditions: Human immunodeficiency virus 1, H9
[5] = Therapeutic index expressed as the ratio of IC50 to EC50.; conditions: read-out: Therapeutic index
H9 [6] = test: Compound was tested for inhibitory activity against HIV replication in H9 lymphocytic cells; Toxic at all concentrations; type: functional, cell-based, Homo sapiens
H9 [7] = test: Compound was tested for cytotoxicity against H9 lymphocytic cells; Toxic at all concentrations; type: functional, cell-based, Homo sapiens

Compound	IC50 (H9 [1]) [µM]	Therapeutic index [2]	EC50 (H9 [3])	EC50 [4] [µM]	selectivity ratio [5]	EC50 (H9 [6])	IC50 (H9 [7])
COC(=O)[C@]12OC[C@]34[C@H]([C@@H](O)[C@@H]1O)[C@@]1(C)C(=O)C(O[C@@H]5O[C@H](CO)[C@@H](O)[C@H](O)[C@H]5O)=C[C@@H](C)[C@@H]1C[C@H]3OC(=O)[C@H](OC(=O)/C=C(\C)C(C)C)[C@@H]24 [Yadanzioside N]	49	Not Active	Not Active				
COC(=O)[C@@]12OC[C@]34[C@H](OC(=O)C[C@@H]13)[C@H](OC(=O)C=C(C)C)[C@H]1C(C)=C(O[C@@H]3O[C@H](CO)[C@@H](O)[C@H](O)[C@H]3O)C(=O)C[C@]1(C)[C@H]4[C@@H](O)[C@@H]2O [BRUCEOSIDE C]	44	Not Active	Not Active				
C=C1[C@H](O)[C@]2(O)OC[C@]34[C@H]2[C@@]2(C)[C@H](O)[C@@H](O)C=C(C)[C@@H]2C[C@H]3OC(=O)C[C@@H]14 [SHINJULACTONE A]	5			5	1		
COC(=O)[C@@]12OC[C@]34[C@H]([C@@H](O)[C@@H]1O)[C@@]1(C)C=C(O[C@@H]5O[C@H](CO)[C@@H](O)[C@H](O)[C@H]5O)C(=O)[C@@H](C)[C@@H]1C[C@H]3OC(=O)[C@H](OC(=O)C=C(C)C)[C@@H]24 [BRUCEOSIDE A]	29			29	1		
CC1=CC(=O)[C@@H](O)[C@@]2(C)C1C[C@H]1OC(=O)C[C@H]3[C@H](C)[C@H](O)C(=O)[C@@H]2[C@@]13CO (some centres not stated)	> 264			10.6	> 25		
COC(=O)[C@]12OC[C@]34[C@H]([C@@H](O)[C@@H]1O)[C@@]1(C)C=C(O[C@@H]5O[C@H](CO)[C@@H](O)[C@H](O)[C@H]5O)C(=O)[C@@H](C)[C@@H]1C[C@H]3OC(=O)[C@H](OC(=O)CC(C)C)[C@@H]24 [Yadanzioside A]	146			110	1.3		
C[C@@H]1C[C@H](O)C(=O)[C@]2(C)[C@H]3[C@H](O)C(=O)[C@H](C)[C@@H]4CC(=O)O[C@H](C[C@@H]12)[C@]34C [AMAROLIDE]	> 275			179	> 1.5		
COC(=O)[C@]12OC[C@]34[C@H]([C@@H](O)[C@@H]1O)[C@@]1(C)CC(=O)C(O[C@@H]5O[C@H](CO)[C@@H](O)[C@H](O)[C@H]5O)=C(C)[C@@H]1C[C@H]3OC(=O)[C@H](OC(=O)C=C(C)C)[C@@H]24 [Bruceoside-B]	3			3	1		
CC1=CC(=O)[C@@H](O)[C@]2(C)[C@H]3[C@@]4(O)C(=O)OC[C@@]35[C@@H](C[C@@H]12)OC(=O)C[C@H]5[C@H]4C [SHINJUDILACTONE]	> 266			43	> 6.2		
CC(=O)O[C@@H]1C(=O)[C@H](C)[C@@H]2CC(=O)O[C@@H]3C[C@H]4[C@H](C)CC(O)C(=O)[C@]4(C)[C@@H]1[C@@]32C (some centres not stated)	> 246			246	> 1		
COC(=O)[C@]12OC[C@]34[C@H]([C@@H](O)[C@@H]1O)[C@@]1(C)CC(=O)C(O[C@@H]5O[C@H](CO)[C@@H](O)[C@H](O)[C@H]5O)=C(C)[C@@H]1C[C@H]3OC(=O)[C@H](OC(=O)/C=C(\C)C(C)(C)O)[C@@H]24 [Yadanzioside L]	10			5	2		
COC(=O)[C@]12OC[C@]34[C@H]([C@@H](O)[C@@H]1O)[C@@]1(C)C=C(O[C@@H]5O[C@H](CO)[C@@H](O)[C@H](O)[C@H]5O)C(=O)[C@@H](C)[C@@H]1C[C@H]3OC(=O)[C@H](OC(=O)/C=C(\C)C(C)(C)OC(C)=O)[C@@H]24 [Yadanzioside G]	37			23	1.6		
CC(=O)OC(C)(C)/C(C)=C/C(=O)O[C@H]1C(=O)O[C@@H]2C[C@H]3[C@H](C)C(=O)C(O[C@@H]4O[C@H](CO)[C@@H](O)[C@H](O)[C@H]4O)=C[C@]3(C)[C@H]3[C@@H](O)[C@H](O)[C@@]4(C(=O)O)OC[C@]32[C@@H]14 [Bruceoside-F]	> 132			112	> 1.2		
COC(=O)[C@@]12OC[C@]34[C@H]([C@@H](O)[C@@H]1O)[C@@]1(C)C=C(O[C@@H]5O[C@H](CO)[C@@H](O)[C@H](O)[C@H]5O)C(=O)[C@@H](C)[C@@H]1C[C@H]3OC(=O)[C@H](OC(=O)c1ccccc1)[C@@H]24 [YADANZIOSIDE-M]	7	Not Active	Not Active				
C=C1[C@@H](O)[C@]2(O)OC[C@@]34[C@H]1[C@@H](OC(=O)C(C)(O)CC)C(=O)O[C@@H]3C[C@H]1C(C)=CC(=O)[C@@H](O)[C@]1(C)[C@@H]24 (some centres not stated)						Toxic at all concentrations	Toxic at all concentrations
COC(=O)[C@]12OC[C@]34[C@H]([C@@H](O)[C@@H]1O)[C@@]1(C)C(=O)C(O[C@@H]5O[C@H](CO)[C@@H](O)[C@H](O)[C@H]5O)=C[C@@H](C)[C@@H]1C[C@H]3OC(=O)[C@H](OC(=O)/C=C(\C)C(C)(C)OC(C)=O)[C@@H]24 [Bruceantinoside C]	26			46	0.6		
COC(=O)[C@]12OC[C@]34[C@H]([C@@H](O)[C@@H]1O)[C@@]1(C)CC(=O)C(O[C@@H]5O[C@H](CO)[C@@H](O)[C@H](O)[C@H]5O)=C(C)[C@@H]1C[C@H]3OC(=O)[C@H](OC(=O)/C=C(\C)C(C)C)[C@@H]24 [Yadanzioside P]	18			18	1		
CC(C)=CC(=O)O[C@H]1C(=O)O[C@@H]2C[C@H]3[C@H](C)C(=O)C(O[C@@H]4O[C@H](CO)[C@@H](O)[C@H](O)[C@H]4O)=C[C@]3(C)[C@H]3[C@@H](O)[C@H](O)[C@]4(C(=O)O)OC[C@]32[C@@H]14 [BRUCEOSIDE D]	52	Not Active	Not Active				
COC(=O)[C@]12OC[C@]34[C@H]([C@@H](O)[C@@H]1O)[C@@]1(C)CC(=O)C(O[C@@H]5O[C@H](CO)[C@@H](O)[C@H](O)[C@H]5O)=C(C)[C@@H]1C[C@H]3OC(=O)[C@H](OC(=O)CC(C)C)[C@@H]24 [Yadanzioside B]	4			5	0.8		
COC(=O)[C@]12OC[C@]34[C@H]([C@@H](O)[C@@H]1O)[C@@]1(C)C=C(O[C@@H]5O[C@H](CO)[C@@H](O)[C@H](O)[C@H]5O)C(=O)[C@@H](C)[C@@H]1C[C@H]3OC(=O)[C@H](OC(C)=O)[C@@H]24 [YADANZIOSIDE F]	156			109	1.4		
CC(C)CC(=O)O[C@H]1C(=O)O[C@@H]2C[C@H]3[C@H](C)C(=O)C(O[C@@H]4O[C@H](CO)[C@@H](O)[C@H](O)[C@H]4O)=C[C@]3(C)[C@H]3[C@@H](O)[C@H](O)[C@]4(C(=O)O)OC[C@]32[C@@H]14 [BRUCEOSIDE E]	59			74	0.8		
Nc1ccn([C@H]2CC[C@@H](CO)O2)c(=O)n1 [ZALCITABINE]	500			0.03	16700		
COC(=O)[C@]12OC[C@]34[C@H]([C@@H](O)[C@@H]1O)[C@@]1(C)C=C(O[C@@H]5O[C@H](CO)[C@@H](O)[C@H](O)[C@H]5O)C(=O)[C@@H](C)[C@@H]1C[C@H]3OC(=O)[C@H](OC(=O)/C=C(\C)C(C)C)[C@@H]24 [Bruceantinoside-A]	4	Not Active	Not Active				
COC(=O)[C@]12OC[C@]34[C@H]([C@@H](O)[C@@H]1O)[C@@]1(C)C=C(O[C@@H]5O[C@H](CO)[C@@H](O)[C@H](O)[C@H]5O)C(=O)[C@@H](C)[C@@H]1C[C@H]3OC(=O)[C@H](OC(=O)/C=C(\C)C(C)(C)O)[C@@H]24 [YADANZIOSIDE C]	55	Not Active	Not Active				
COC(=O)C(C)[C@@H]1CC(=O)O[C@@H]2C[C@H]3C(C)=CC(=O)[C@@H](O)[C@]3(C)[C@H]3C(=O)OC[C@]321 (some centres not stated) [AILANTINOL A]	> 246			30	> 8.2		
COC(=O)[C@]12OC[C@]34[C@H]([C@@H](O)[C@@H]1O)[C@@]1(C)[C@H](O)[C@H](O[C@@H]5O[C@H](CO)[C@@H](O)[C@H](O)[C@H]5O)C=C(C)[C@@H]1C[C@H]3OC(=O)[C@H](OC(=O)C=C(C)C)[C@@H]24 [Yadanzioside E]	29	Not Active	Not Active				

From ChEMBL document CHEMBL1149997, “Anti-HIV activity of quassinoids” (Bioorg Med Chem Lett, 1996)
